According to PubChem BioAssay (NCI):
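Dose response: 5 concentrations. Exposure: 48 h. Format: 96-well plates. Endpoint: linear interpolation; highest concentration if not reached. At the TGI there is no net growth.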

Columns and labels:
Assay in all cases: inhibition of tumour cell growth, NCI panel, 48 h
786-0 renal = system: 786-0 renal
SF-268 CNS = system: SF-268 CNS
UO-31 renal = system: UO-31 renal
LOX IMVI melanoma = system: LOX IMVI melanoma
SNB-78 CNS = system: SNB-78 CNS
M19-MEL melanoma = system: M19-MEL melanoma
M14 melanoma = system: M14 melanoma
K-562 leukemia = system: K-562 leukemia
HCT-116 colon = system: HCT-116 colon
SN12C renal = system: SN12C renal
OVCAR-4 ovarian = system: OVCAR-4 ovarian
IGROV1 ovarian = system: IGROV1 ovarian
SK-MEL-5 melanoma = system: SK-MEL-5 melanoma
OVCAR-8 ovarian = system: OVCAR-8 ovarian
U251 CNS = system: U251 CNS
MALME-3M melanoma = system: MALME-3M melanoma
SNB-75 CNS = system: SNB-75 CNS
CCRF-CEM leukemia = system: CCRF-CEM leukemia
UACC-257 melanoma = system: UACC-257 melanoma
NCI-H23 lung = system: NCI-H23 lung
DLD-1 colon = system: DLD-1 colon
A549 NSCLC = system: A549 NSCLC
OVCAR-3 ovarian = system: OVCAR-3 ovarian
NCI-H226 lung = system: NCI-H226 lung
DMS 273 small cell lung = system: DMS 273 small cell lung
KM20L2 colon = system: KM20L2 colon
EKVX NSCLC = system: EKVX NSCLC
RPMI-8226 leukemia = system: RPMI-8226 leukemia
UACC-62 melanoma = system: UACC-62 melanoma
SK-MEL-28 melanoma = system: SK-MEL-28 melanoma
HOP-92 NSCLC = system: HOP-92 NSCLC
HCC-2998 colon = system: HCC-2998 colon
HOP-18 NSCLC = system: HOP-18 NSCLC
NCI-H522 lung = system: NCI-H522 lung
HCT-15 colon = system: HCT-15 colon
SF-539 CNS = system: SF-539 CNS
RXF 393 renal = system: RXF 393 renal
HT29 colon = system: HT29 colon
ACHN renal = system: ACHN renal
SW-620 colon = system: SW-620 colon
SK-OV-3 ovarian = system: SK-OV-3 ovarian
LXFL 529 NSCLC = system: LXFL 529 NSCLC
HL-60(TB) leukemia = system: HL-60(TB) leukemia
HOP-62 NSCLC = system: HOP-62 NSCLC
SNB-19 CNS = system: SNB-19 CNS
COLO 205 colon = system: COLO 205 colon
TK-10 renal = system: TK-10 renal
OVCAR-5 ovarian = system: OVCAR-5 ovarian
KM12 colon = system: KM12 colon
CAKI-1 renal = system: CAKI-1 renal
SK-MEL-2 melanoma = system: SK-MEL-2 melanoma
NCI-H460 lung = system: NCI-H460 lung
SF-295 CNS = system: SF-295 CNS

CCCCCC#COC1CC(C)CC[C@@H]1C(C)C (stereo partly drawn)
TGI (786-0 renal): > 100 µM | TGI (SF-268 CNS): > 100 µM | TGI (UO-31 renal): > 100 µM | TGI (LOX IMVI melanoma): 29.9 µM | TGI (SNB-78 CNS): > 100 µM | TGI (M19-MEL melanoma): > 100 µM | TGI (M14 melanoma): > 100 µM | TGI (K-562 leukemia): > 100 µM | TGI (HCT-116 colon): > 100 µM | TGI (SN12C renal): > 100 µM | TGI (OVCAR-4 ovarian): > 100 µM | TGI (IGROV1 ovarian): 79.5 µM | TGI (SK-MEL-5 melanoma): > 100 µM | TGI (OVCAR-8 ovarian): > 100 µM | TGI (U251 CNS): > 100 µM | TGI (MALME-3M melanoma): > 100 µM | TGI (SNB-75 CNS): > 100 µM | TGI (CCRF-CEM leukemia): 31.9 µM | TGI (UACC-257 melanoma): > 100 µM | TGI (NCI-H23 lung): > 100 µM | TGI (DLD-1 colon): > 100 µM | TGI (A549 NSCLC): > 100 µM | TGI (OVCAR-3 ovarian): > 100 µM | TGI (NCI-H226 lung): > 100 µM | TGI (DMS 273 small cell lung): > 100 µM | TGI (KM20L2 colon): > 100 µM | TGI (EKVX NSCLC): > 100 µM | TGI (RPMI-8226 leukemia): 69.7 µM | TGI (UACC-62 melanoma): > 100 µM | TGI (SK-MEL-28 melanoma): > 100 µM | TGI (HOP-92 NSCLC): > 100 µM | TGI (HCC-2998 colon): > 100 µM | TGI (HOP-18 NSCLC): > 100 µM | TGI (NCI-H522 lung): 52.2 µM | TGI (HCT-15 colon): > 100 µM | TGI (SF-539 CNS): > 100 µM | TGI (RXF 393 renal): 86.9 µM | TGI (HT29 colon): > 100 µM | TGI (ACHN renal): > 100 µM | TGI (SW-620 colon): 34.1 µM | TGI (SK-OV-3 ovarian): > 100 µM | TGI (LXFL 529 NSCLC): > 100 µM | TGI (HL-60(TB) leukemia): 55 µM | TGI (HOP-62 NSCLC): > 100 µM | TGI (SNB-19 CNS): > 100 µM | TGI (COLO 205 colon): > 100 µM | TGI (TK-10 renal): > 100 µM | TGI (OVCAR-5 ovarian): > 100 µM | TGI (KM12 colon): > 100 µM | TGI (CAKI-1 renal): > 100 µM | TGI (SK-MEL-2 melanoma): > 100 µM | TGI (NCI-H460 lung): 55.4 µM | TGI (SF-295 CNS): > 100 µM
